`*C(=O)c1ccc(C(=O)c2ccc(Oc3ccc(C(C)(C)c4ccc(Oc5ccc(*)s5)cc4)cc3)s2)cc1` (repeat unit): the glass transition temperature amounted to 154.00 °C. For `*C(=O)c1ccc(Oc2ccc(C(C)(C)c3ccc(Oc4ccc(*)s4)cc3)cc2)s1` (repeat unit), the glass transition temperature was found to be 124.00 °C.

In turn, `*C(=O)c1ccc(Oc2ccc(C3(c4ccc(Oc5ccc(C(=O)c6ccc7c(c6)C(=O)N(c6ccc(Oc8ccc(N9C(=O)c%10ccc(*)cc%10C9=O)cc8)cc6)C7=O)cc5)cc4)OC(=O)c4ccccc43)cc2)cc1` (repeat unit) displayed a glass transition temperature of 260.00 °C. `*C(=O)c1ccc2nc(-c3ccc(-c4cnc5cc(*)ccc5n4)cc3)cnc2c1` (repeat unit) displayed a glass transition temperature of 318.00 °C. As for `*C(=O)c1ccc2nc(-c3ccccc3)c(-c3ccc(-c4nc5cc(*)ccc5nc4-c4ccccc4)cc3)nc2c1` (repeat unit), the glass transition temperature was 325.00 °C. The same measure for `*C(=O)c1ccc2nc(-c3ccccc3)c(-c3ccc(-c4nc5ccc(*)cc5nc4-c4ccccc4)cc3)nc2c1` (repeat unit): 320.00 °C; for `*C(=O)c1ccc2nc(-c3ccccc3)c(-c3ccc(Oc4ccc(-c5nc6cc(*)ccc6nc5-c5ccccc5)cc4)cc3)nc2c1` (repeat unit): 271.00 °C; for `*Oc1ccc(/C=C/C(=O)c2ccc(Oc3ccc(C(C)(C)c4ccc(*)c(C)c4)cc3C)cc2)cc1` (repeat unit): 157.00 °C. Take `*Oc1ccc(/C=N/N=C/c2ccc(Oc3ccc(C(c4ccc(*)cc4)(C(F)(F)F)C(F)(F)F)cc3)cc2)cc1` (repeat unit): the glass transition temperature was determined as 162.00 °C. Compound `*Oc1ccc(/N=C(\c2ccccc2)c2ccc(Oc3ccc(C(C)(C)c4ccc(Oc5ccc(/C(=N/c6ccc(*)cc6)c6ccccc6)cc5)cc4)cc3)cc2)cc1` (repeat unit) displayed a glass transition temperature of 155.00 °C. Turning to `*Oc1ccc(C(C)(C)c2ccc(C(C)(C)c3ccc(Oc4ccc(C(=O)Nc5ccc(Cc6ccc(NC(=O)c7ccc(*)cc7)cc6)cc5)cc4)cc3)cc2)cc1` (repeat unit), the glass transition temperature was 162.00 °C. With `*Oc1ccc(C(C)(C)c2ccc(C(C)(C)c3ccc(Oc4ccc(C(=O)Nc5cccc(NC(=O)c6ccc(*)cc6)c5)cc4)cc3)cc2)cc1` (repeat unit), the glass transition temperature was determined as 173.00 °C. For the compound `*Oc1ccc(C(C)(C)c2ccc(Oc3ccc(C(=O)c4c(C(=O)c5ccc(*)cc5)c(-c5ccccc5)c(-c5ccc6ccccc6c5)c(-c5ccc6ccccc6c5)c4-c4ccccc4)cc3)cc2)cc1` (repeat unit), the glass transition temperature came out at 264.00 °C. The same measure for `*Oc1ccc(C(C)(C)c2ccc(Oc3ccc(C(=O)c4ccc(*)c(S(=O)(=O)O)c4)cc3S(=O)(=O)O)cc2)cc1` (repeat unit): 175.00 °C; for `*Oc1ccc(C(C)(C)c2ccc(Oc3ccc(C(=O)c4ccc(*)cc4)cc3)cc2)cc1` (repeat unit): 155.00 °C; for `*Oc1ccc(C(C)(C)c2ccc(Oc3ccc(C(=O)c4ccc(C(=O)c5ccc(*)cc5)cc4)cc3)cc2)cc1` (repeat unit): 160.00 °C.

For the compound `*Oc1ccc(C(C)(C)c2cccc(C(C)(C)c3ccc(Oc4ccc(C(=O)Nc5cccc(NC(=O)c6ccc(*)cc6)c5)cc4)cc3)c2)cc1` (repeat unit), the glass transition temperature came to 155.00 °C. Consider `*Oc1ccc(C2(c3ccc(OC(=O)c4ccc(Oc5ccc(C6(c7ccc(Oc8ccc(C(*)=O)cc8)cc7)CCC(C(C)(C)C)CC6)cc5)cc4)cc3)C3CC4CC(C3)CC2C4)cc1` (repeat unit), for which the glass transition temperature was determined as 197.00 °C.

In turn, `*Oc1ccc(C2(c3ccc(Oc4ccc(C(=O)Oc5ccc(C6(c7ccc(OC(=O)c8ccc(*)cc8)cc7)CCC(c7ccccc7)CC6)cc5)cc4)cc3)CCC(C(C)(C)C)CC2)cc1` (repeat unit) returned a glass transition temperature of 172.00 °C. Compound `*Oc1ccc(NC(=O)c2ccc(Oc3ccc(C(C)(C)c4cccc(C(C)(C)c5ccc(Oc6ccc(C(=O)Nc7ccc(*)cc7)cc6)cc5)c4)cc3)cc2)cc1` (repeat unit) returned a glass transition temperature of 155.00 °C. The same measure for `*Oc1ccc(NC(=O)c2ccc(Oc3ccc(C(C)(C)c4cccc(C(C)(C)c5ccc(Oc6ccc(C(=O)Nc7ccc(Oc8ccc(C(c9ccc(*)cc9)(C(F)(F)F)C(F)(F)F)cc8)cc7)cc6)cc5)c4)cc3)cc2)cc1` (repeat unit): 154.00 °C. `*Oc1ccc(Oc2ccc(NC(=O)c3ccc(Oc4ccc(C(C)(C)c5cccc(C(C)(C)c6ccc(Oc7ccc(C(=O)Nc8ccc(*)cc8)cc7)cc6)c5)cc4)cc3)cc2)cc1` (repeat unit) yielded a glass transition temperature of 147.00 °C. The same measure for `*Oc1ccc(S(=O)(=O)c2ccc(Oc3ccc(C(C)(C)c4ccc(Oc5ccc(C(=O)c6ccc(*)cc6)cc5)cc4)cc3)cc2)cc1` (repeat unit): 175.00 °C. Under `*Oc1ccc(S(=O)(=O)c2ccc(Oc3ccc(NC(=O)c4ccc(Oc5ccc(C(C)(C)c6ccc(C(C)(C)c7ccc(Oc8ccc(C(=O)Nc9ccc(*)cc9)cc8)cc7)cc6)cc5)cc4)cc3)cc2)cc1` (repeat unit) stands 177.00 °C; under `*Oc1cccc2ccc(Oc3ccc(NC(=O)c4ccc(Oc5ccc(C(C)(c6ccccc6)c6ccc(Oc7ccc(C(=O)Nc8ccc(*)cc8)cc7)cc6)cc5)cc4)cc3)cc12` (repeat unit), 212.00 °C; under `*c1ccc(-c2nc3cc(C(=O)c4ccc5nc(-c6ccccc6)c(-c6ccc(-n7c(=O)c8cc9c(=O)n(*)c(=O)c9cc8c7=O)cc6)nc5c4)ccc3nc2-c2ccccc2)cc1` (repeat unit), 240.00 °C. `*c1ccc(Oc2ccc(-n3c(=O)c4c(Oc5ccc(OCCCCCCCCCCCC)cc5)c5c(=O)n(*)c(=O)c5c(Oc5ccc(OCCCCCCCCCCCC)cc5)c4c3=O)cc2)cc1` (repeat unit) had a glass transition temperature of 218.00 °C. Compound `*c1ccc(Oc2ccc(-n3c(=O)c4cc5c(=O)n(*)c(=O)c5cc4c3=O)cc2-c2ccccc2)cc1` (repeat unit) registered a glass transition temperature of 329.00 °C. With `*c1ccc(Oc2ccc(C(C)(C)c3ccc(Oc4ccc(-c5nnc(*)c6c(-c7ccccc7)c(-c7ccc8ccccc8c7)c(-c7ccc8ccccc8c7)c(-c7ccccc7)c56)cc4)cc3)cc2)cc1` (repeat unit), the glass transition temperature came out at 290.00 °C. Under `*c1ccc(Oc2ccc(C(C)(C)c3ccc(Oc4ccc(-c5nnc(*)o5)cc4)cc3)cc2)cc1` (repeat unit) stands 180.00 °C. On to `*c1ccc(Oc2ccc(C(c3ccc(Oc4ccc(-c5nc(-c6ccccn6)nnc5*)cc4)cc3)(C(F)(F)F)C(F)(F)F)cc2)cc1` (repeat unit), for which the glass transition temperature came to 224.00 °C. Under `*c1ccc(Oc2ccc(C(c3ccc(Oc4ccc(-c5nnc(*)n5-c5ccccc5)cc4)cc3)(C(F)(F)F)C(F)(F)F)cc2)cc1` (repeat unit) stands 203.00 °C; under `*c1ccc(Oc2ccc(S(=O)(=O)c3ccc(Oc4ccc(-c5nc(-c6ccccn6)nnc5*)cc4)cc3)cc2)cc1` (repeat unit), 265.00 °C. In the case of `*c1ccc(S(=O)(=O)c2ccc(-n3nc(-c4ccc(Oc5ccc(-c6nn(*)c(=O)c7ccccc67)cc5)cc4)c4ccccc4c3=O)cc2)cc1` (repeat unit), the glass transition temperature was found to be 295.00 °C.

For the origin of these results see the PolyMetriX glass transition set.
